The test system of experiment [1] is CDK. Conditions: CDKs; cited from earlier work.
In experiment [2] the target is EGFR tyrosine kinase (Homo sapiens, UniProt P00533). Conditions: cited from earlier work.
Experiment [3] relates to Phaeodactylum tricornutum. In words: Microplate assay: growth (absorbance 680 nm) and intracellular lipids (Nile Red fluorescence). Type of experiment: cell-based.
The test system of experiment [4] is antioxidant response element. Conditions: cited from earlier work.
Experiment [5] relates to Nannochloris sp. Nature of the experiment: Microplate assay: growth (absorbance 680 nm) and intracellular lipids (Nile Red fluorescence). The format is cell-based. Conditions: for Absorbance (percent increase) / Nile Red percent increase: initial microplate screen, relative to control; for Nile Red Fluorescence % Increase: initial screening, p<0.05.
Experiment [6] concerns Nannochloropsis salina. Conditions: for % Inc: increase of lipid production, best conc. 10 nM.
Experiment [7] relates to MLCK. Conditions: cited from earlier work.
In experiment [8] the target is T1, PKA (rat liver catalytic subunit) (Rattus norvegicus, UniProt P27791).
T1 construct: rat liver catalytic subunit; host or cells: rat liver
Conditions: cited from earlier work.

In experiment [9] the test system is PKC. Conditions: cited from earlier work.
Experiment [10] has as its target PKA (Homo sapiens, UniProt P17612). Conditions: cited from earlier work.
Experiment [11] concerns Nannochloropsis oculata. Conditions: for Nile Red Fluorescence % Increase: compounds tested at 200 nM, initial screening, p<0.05.
Experiment [12] addresses p70 S6 kinase activation. Conditions: signaling that leads to p70 S6 kinase activation; cited from earlier work.
Experiment [13] addresses protein phosphatase 2A (Homo sapiens, UniProt P67775). Conditions: cited from earlier work.
The subject of experiment [14] is Nannochloropsis salina. Nature of the experiment: 500 mL batch culture: growth, dry weight and lipid extract (gravimetric). Conditions: for increase in lipid levels: batch cultures; for Lipid productivity / Lipid content / Change in Lipids / Specific Growth Rate: N. salina, 500 mL culture; for Lipid content: dried lipid extract per dry biomass; for Change in Lipids: gravimetric, relative to averaged control without DMSO; for Specific Growth Rate: mid-exponential growth phase. Type of experiment: cell-based.

The subject of experiment [15] is microsomal lipid peroxidation. Conditions: cited from earlier work.
Experiment [16] concerns Phaeodactylum tricornutum. Nature of the experiment: 500 mL batch culture: growth, dry weight and lipid extract (gravimetric). The format is cell-based. Conditions: P. tricornutum, 500 mL culture, 120 nM.
Procedure: Batch cultures were grown in 500 mL Pyrex media bottles with stirring and air bubbling (homemade manifold with Petco air pump, 2-4% CO2). Incoming air was sterile filtered by Polyvent 4 disposable filters (Whatman, Kent, UK). […] To minimize bacterial contamination, all equipment and materials were autoclaved and media was added to flask in a Purifier Vertical Clean bench (Labconco, Kansas City, Mo.). […] The amount of DMSO is standardized for all experiments to 0.4%.
For all compound cultures, the 2 mL DMSO stock solution was added to media (without algae) first and mixed well. Control cultures were grown without DMSO. DMSO controls consisted of 0.04-1.0% DMSO. After the addition of algae and media, the container was plugged with a bug stopper vented closure cap and mixed thoroughly. Absorbance is measured immediately for Day 0 analysis. Afterward, absorbance was measured every 1-2 days with a cuvette (1 mL volume) on the Thermo Scientific Genesys 10S V is Spectrophotometer (ThermoFisher, San Jose) at 680 nm.
Batch cultures were also repeated in triplicate and compared to a control culture grown at the same time. Algae were harvested and lipids were extracted for gravimetric analysis.
The nonpolar algal extracts were harvested from 500 mL cultures when indicated on growth curves, a minimum of 3 days into stationary phase.
Cell density was monitored by measuring absorbance at 680 nm every 1-2 days.
500-mL cultures were harvested 6 days into stationary phase based on absorbance values. Cells were concentrated by centrifugation and lyophilization to remove water. Nonpolar lipids were extracted by sonication and solvent (chloroform-methanol and PBS buffer). […] Changes in lipid levels for batch cultures were determined by crude lipid extract mass.
Experiment [17] concerns fatty acid and sterol synthesis. Conditions: cited from earlier work.
Experiment [18] has as its system ERK signaling pathway. Conditions: cited from earlier work.
Experiment [19] deals with Nannochloropsis oculata. Nature of the experiment: Lipid composition of batch culture extracts (fatty acid saturation / PUFA by 1H NMR, MALDI-TOF, GC/MS). The format is cell-based. Conditions: N. oculata, 40 nM, n=1.
Procedure: The nonpolar algal extracts were harvested from 500 mL cultures when indicated on growth curves, a minimum of 3 days into stationary phase. […] Cells were crushed and nonpolar lipids were extracted by sonication (Fisher Scientific Model 120 Sonic Dismembrator, ThermoFisher, San Jose) for 1 minute in chloroform, followed by chloroform-methanol extractions, washed with PBS butter, and dried under vacuum.^55-60 The crude non-polar algae extracts were then analyzed by ^1H Nuclear Magnetic Resonance (^1H NMR) for verification of TAG presence and examination of the purity of the extract (determination of level of chlorophyll). The extracts were then divided for analysis; one part for transesterification, one part to save as crude extract, and one part for SPE separation and MALDI-TOF analysis of TAGs.
Triacylglycerols can be isolated by solid-phase extraction (SPE) with 500 mg silica SPE cartridges (Silicycle, Quebec). The nonpolar extract is dissolved in 300 μL hexanes, and loaded on the SPE cartridge primed with hexanes. A mixture of 80:20:1 hexanes/diethyl ether/acetic acid was used as mobile phase to elute the TAGs.^61 SPE removes any chlorophyll in this process. Residual polar fraction containing polar lipids and chlorophyll was obtained by elution with acetone. All extracts and TAG fractions were dried under vacuum and stored under argon in amber vials at −20° C. before spectroscopic analysis. After SPE, the purified TAG fraction was reanalyzed with ^1H NMR spectroscopy for TAG characterization.
The TOF was in Reflectron mode with laser intensity from 5500-6500 Volts. Each acquisition consisted of 2500 shots with a focus mass of 900 Da, and a scan range of m/z 400-1100. Multiple acquisition scans were performed at different laser intensities to determine optimal conditions. Samples for the MALDI-TOF were diluted to 5 mg/mL in hexane, and spotted in the fast-evaporation method in a 1:2 ratio with DHB (2,5-dihydroxybenzoic acid) as the matrix. Re-spotting with methanol allowed for the matrix and sample to mix without hexane interactions, and allowed for better crystal formation. All samples on MALDI plate were allowed to dry before MS analysis. Data was normalized to base peak in all cases.
After the initial weight was recorded, the nonpolar extract set aside for transesterification was dissolved in 3.0 mL of 0.6 M sulfuric acid in methanol and stirred vigorously at 60° C. for 45 minutes.
Initial GC/MS temperature was 50° C. and end was 200° C. over at a one hour period for optimal FAME peak separation.
Peak assignment of fatty acids and their derivatives are based on NMR spectroscopic studies of previously reported algal lipid extracts^9 and comparison to standards such as olive oil (ACROS) and fatty acid mixtures.
We developed a quick and robust method to screen if the screened compound effect fatty acid saturation levels using ^1H NMR spectroscopy. The amount of saturated fatty acids (SFA), monounsaturated fatty acids (MUFAs), and polyunsaturated fatty acids (PUFAs) was determined using peak area ratios.
Calculated based on ^1H NMR integral ratios for the proton signals for the methyl group of PUFA components vs. the methyl groups of monounsaturated and saturated components.
For experiment [20], the system named is Nannochloris sp. Nature of the experiment: 500 mL batch culture: growth, dry weight and lipid extract (gravimetric). Conditions: Nannochloris sp., 500 mL culture, 40 nM. The format is cell-based.
For experiment [21], the system named is microalgae. In words: 500 mL batch culture (growth, gravimetric lipids), algae strain not stated. Conditions: 500 mL batch cultures (Table 30). Type of experiment: cell-based.
Experiment [22] deals with Diacylglycerol lipase. Conditions: cited from earlier work.
Experiment [23] has as its target c-Jun N-terminal kinase. Conditions: cited from earlier work.
The target of experiment [24] is Cdk2/cyclin A (Homo sapiens, UniProt P24941). Conditions: Cdk2/cyclin A; cited from earlier work.
The target of experiment [25] is Cdk2/cyclin E (Homo sapiens, UniProt P24941). Conditions: cited from earlier work.
The conditions of experiment [26]: DPPH free radical scavenging activity; cited from earlier work.
Setting [27] is: Nannochloris sp., compounds tested at 200 nM.
Where [28] appears, read: 200 nM, initial microplate screen, relative to control.
Setting [29] is: Nannochloris sp., compounds tested at 20 μM.
The mark [30] stands for this setting: gravimetric, relative to averaged control without DMSO.

Like-named read-outs stand apart in the source and are kept apart here.

EGFR tyrosine kinase, sequence (P00533 25-1210): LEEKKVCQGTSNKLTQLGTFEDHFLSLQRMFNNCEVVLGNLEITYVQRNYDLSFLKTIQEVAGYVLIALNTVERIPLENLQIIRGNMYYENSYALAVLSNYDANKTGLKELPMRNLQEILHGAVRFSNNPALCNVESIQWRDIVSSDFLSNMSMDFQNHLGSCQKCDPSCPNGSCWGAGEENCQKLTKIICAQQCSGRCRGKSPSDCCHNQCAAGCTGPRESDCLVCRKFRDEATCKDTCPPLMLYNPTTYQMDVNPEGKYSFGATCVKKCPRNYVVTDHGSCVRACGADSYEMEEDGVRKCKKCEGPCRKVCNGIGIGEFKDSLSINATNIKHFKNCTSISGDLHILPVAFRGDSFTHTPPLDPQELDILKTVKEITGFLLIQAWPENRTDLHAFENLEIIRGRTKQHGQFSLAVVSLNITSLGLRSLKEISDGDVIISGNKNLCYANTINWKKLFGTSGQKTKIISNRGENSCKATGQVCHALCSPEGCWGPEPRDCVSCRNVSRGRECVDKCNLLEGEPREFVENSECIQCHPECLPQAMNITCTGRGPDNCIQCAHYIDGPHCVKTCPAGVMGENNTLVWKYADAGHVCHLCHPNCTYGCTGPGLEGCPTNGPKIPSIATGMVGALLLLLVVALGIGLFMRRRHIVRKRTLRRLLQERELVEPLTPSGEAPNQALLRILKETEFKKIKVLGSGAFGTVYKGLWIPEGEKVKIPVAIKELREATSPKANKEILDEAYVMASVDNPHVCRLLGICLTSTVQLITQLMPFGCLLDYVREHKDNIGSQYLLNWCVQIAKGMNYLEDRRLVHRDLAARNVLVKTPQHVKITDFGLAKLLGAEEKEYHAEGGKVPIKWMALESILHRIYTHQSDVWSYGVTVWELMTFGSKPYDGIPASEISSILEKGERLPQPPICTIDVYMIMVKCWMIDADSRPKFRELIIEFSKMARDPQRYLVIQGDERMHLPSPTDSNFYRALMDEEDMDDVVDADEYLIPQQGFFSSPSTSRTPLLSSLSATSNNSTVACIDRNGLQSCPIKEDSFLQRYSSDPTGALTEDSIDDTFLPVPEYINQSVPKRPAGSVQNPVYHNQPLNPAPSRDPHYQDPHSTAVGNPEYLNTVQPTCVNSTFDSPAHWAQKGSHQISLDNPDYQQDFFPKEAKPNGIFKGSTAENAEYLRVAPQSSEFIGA
protein phosphatase 2A, sequence (P67775 whole entry): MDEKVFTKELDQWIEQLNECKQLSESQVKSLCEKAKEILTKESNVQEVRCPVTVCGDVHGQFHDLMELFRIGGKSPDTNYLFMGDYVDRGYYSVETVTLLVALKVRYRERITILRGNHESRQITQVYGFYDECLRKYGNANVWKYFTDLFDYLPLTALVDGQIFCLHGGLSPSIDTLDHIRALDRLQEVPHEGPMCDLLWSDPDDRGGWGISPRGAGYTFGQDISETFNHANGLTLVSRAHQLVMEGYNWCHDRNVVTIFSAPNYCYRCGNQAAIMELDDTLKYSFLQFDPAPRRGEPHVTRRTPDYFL

For `COc1ccc2c(c1)/C(=C/c1cnc[nH]1)C(=O)N2` [SU9516], the IC50 – broadly, the point on the concentration scale where inhibition reaches its midpoint – in [1] was 22 nM.
Regarding `O=C(/C=C/c1ccc(O)c(O)c1)c1ccc(O)cc1O` [Butein, (E)-1-(2,4-dihydroxyphenyl)-3-(3,4-dihydroxyphenyl)prop-2-en-1-one], the IC50 in experiment [2] is 65000 nM. Further, the “% increase (lipid production)” value is 1-116 (H2O) % in experiment [3] (54 nM-40 μM (H2O)) and 14% in [3] (40 μM).
As for `CC1=CC(=O)CC(C)(C)[C@@]1(O)/C=C/C(C)=C\C(=O)O` [Abscisic acid, (2Z,4E)-5-[(1S)-1-hydroxy-2,6,6-trimethyl-4-oxocyclohex-2-en-1-yl]-3-methylpenta-2,4-dienoic acid], the “agonist of antioxidant response element at” value in experiment [4] is listed as “element at 37.6 μM)”. Besides, the “Absorbance (percent increase)” value in [5] (200 nM) was −2.6%; in experiment [3] (setting [28]) it was −1.2%. Moreover, the “Nile Red percent increase” value in experiment [5] (200 nM) was 61.6%; in [3] (setting [28]), 87.0%. Besides, the “Nile Red Fluorescence % Increase” value in experiment [5] (setting [27]) is 90.8%; in experiment [3] (P. tricornutum, compounds tested at 200 nM, initial screening, p<0.05), 87.0%; in experiment [6] (N. salina, compounds tested at 20 μM, initial screening, p<0.05), 34.5%.
As to `Oc1cc(O)cc(/C=C/c2ccc(O)c(O)c2)c1` [Piceatannol, 3,3′,4,5′-Tetrahydroxy-trans-stilbene], the IC50 is 12000 nM in experiment [7], 3000 nM in experiment [8] and 8000 nM in [9] (PKC). Also, the figures for the “% increase (lipid production)” value in experiment [3] (4-40 μM (H2O)) and in experiment [6] (55-40 μM) were 7-41 (H2O) % and 0.3-148%, respectively. Besides, the “Nile Red percent increase” value in experiment [6] (40 μM, dose-response microplate screen) was 195%.
As for `CN(C)CCCn1cc(C2=C(c3c[nH]c4ccccc34)C(=O)NC2=O)c2ccccc21` [Bisindolylmaleimide, 2-[1-(3-Dimethylaminopropyl)-1H-indol-3-yl]-3-(1H-indol-3-yl)-maleimide], the Ki (usually a dissociation constant, usually derived from enzyme kinetics or from competition with a known ligand) in experiment [10] is 2000 nM; in [9] it was 10 nM. For the same molecule, the “% Increase based on Nile Red Fluorescence Intensity” value in experiment [5] (0 h, 1.3 µM) turned out to be 70%. In addition, the “% Lipid increase based on Nile red fluorescence intensity” value in experiment [5] (Nannochloris sp., 49 nM, (water), t=day 0) amounted to 141%.
For `CO[C@H]1C[C@@H]2CC[C@@H](C)[C@@](O)(O2)C(=O)C(=O)N2CCCC[C@H]2C(=O)O[C@H]([C@H](C)C[C@@H]2CC[C@@H](O)[C@H](OC)C2)CC(=O)[C@H](C)/C=C(\C)[C@@H](O)[C@@H](OC)C(=O)[C@H](C)C[C@H](C)/C=C/C=C/C=C/1C` [Rapamycin, (3S,6R,7E,9R,10R,12R,14S,15E,17E,19E,21S,23S,26R,27R,34aS)-9,10,12,13,14,21,22,23,24,25,26,27,32,33,34,34a-hexadecahydro-9,27-dihydroxy-3-[(1R)-2-[(1S,3R,4R)-4-hydroxy-3-methoxycyclohexyl]-1-methylethyl]-10,21-dimethoxy-6,8,12,14,20,26-hexamethyl-23,27-epoxy-3H-pyrido[2,1-c][1,4]-oxaazacyclohentriacontine-1,5,11,28,29(4H,6H,31H)-pentone], the figures for the “Nile Red Fluorescence % Increase” value in experiment [11] (N. oculata) and in [5] (setting [29]) were 141.6% and 117.3%, respectively. For the same molecule, the IC50 in [12] was 0.05 nM. Further, the “Absorbance (percent increase)” value in [5] (200 nM) is reported as −5.9%. Further, the “Nile Red percent increase” value in experiment [5] (200 nM) was determined as 107.9%.
For the molecule `CC12C(=O)OC(=O)C1(C)C1CCC2O1` (stereo not drawn) [Cantharidin, 2,6-Dimethyl-4,10-dioxatricyclo-[5.2.1.0^2,6]decane-3,5-dione], the “% increase (lipid production)” value in [11] (55.2-165.6 nM) is 11-54%; in experiment [3] (0.0252-0.0757 nM), 9-35%; in experiment [3] (0.0252-165.6 nM (H2O)), 0.17-168.19%; in [6] (0.0252-0.681 nM), 1-15%; in experiment [6] (0.0252-165 nM (H2O)), 7-87%. Further, the “Absorbance (percent increase)” value in [5] (200 nM) is on record as −6.5%. The “Nile Red percent increase” value in experiment [5] (200 nM) amounted to 64.5%. In experiment [5] (setting [29]), the “Nile Red Fluorescence % Increase” value is 22.9%. In addition, the IC50 in experiment [13] was 40 nM.
As for `CCCOC(=O)c1cc(O)c(O)c(O)c1` [propyl gallate, propyl 3,4,5-trihydroxybenzoate], in experiment [14] (40 nM), the “increase in lipid levels” value was found to be 67%, the Lipid productivity stood at 8.3 ± 1.7 mgL^−1day^−1, the Lipid content was 25.9 ± 11.4 % w/w and the “Change in Lipids” value is 67%. In addition, in [14] (40 nM), the “Specific Growth Rate” value is 0.23 ± 0.002 day⁻¹. In addition, the IC50 in experiment [15] was 4500 nM. Also, the “% Inc” value in experiment [6] (N. salina) was 264.42%.
The molecule `NC(=O)c1ncn([C@@H]2O[C@H](COP(=O)(O)O)[C@@H](O)[C@H]2O)c1N` [AICAR, [(2R,3S,4R,5R)-5-(4-Carbamoyl-5-amino-imidazol-1-yl)-3,4-dihydroxyoxolan-2-yl]methyl dihydrogen phosphate] gave a Lipid productivity in experiment [16] of 7.0 ± 0.9 mgL^−1day^−1. In experiment [16] (dried lipid extract per dry biomass), the Lipid content stood at 22.7 ± 1.3 % w/w. The “Change in Lipids” value in experiment [16] (setting [30]) is recorded as 45%. Further, the “Specific Growth Rate” value in experiment [16] (mid-exponential growth phase) was determined as 0.34 ± 0.04 day⁻¹. Also, the “inhibitor of fatty acid and sterol synthesis (concentration)” value in experiment [17] is on record as “synthesis (0.5 mM), inactivates HMG-CoA reductase”.
With `Cn1cnc2c1c(=O)[nH]c(=O)n2C` [Theobromine], the potency result in [18] is reported as “(potency = 0.004 μM)”. The “Nile Red Fluorescence % Increase” value in experiment [5] (setting [27]) is on record as 34.3%.
Turning to `CCCCCCCCCCC[C@@H](C[C@@H]1OC(=O)[C@H]1CCCCCC)OC(=O)[C@H](CC(C)C)NC=O` [orlistat, (S)-((S)-1-((2S,3S)-3-hexyl-4-oxooxetan-2-yl)tridecan-2-yl) 2-formamido-4-methylpentanoate], the “SFAs (%)” value in experiment [19] (Normal 0 ± 1) was 3%. The “MUFAs (%)” value in experiment [19] (Normal 4 ± 7) came to 29%. Besides, in experiment [19] (Normal 28 ± 4), the “n3 PUFAs (%)” value was found to be 16%. Besides, the “PUFAs (%)” value in [19] (Normal 96 ± 7) is on record as 68%. In addition, the Lipid productivity in experiment [20] is given as 5.1 ± 1.5 mgL^−1day^−1. In experiment [20] (setting [30]), the “Change in Lipids” value was found to be 72%. The “Specific Growth Rate” value in experiment [20] (mid-exponential growth phase) came to 0.20 ± 0.01 day⁻¹. Besides, the “% change in abs” value in experiment [11] (N. oculata, 13 nM) is 0.83%; in experiment [6] (N. salina, 40 μM), −31.92%. For the same molecule, the “% in NR fl” value in experiment [11] (N. oculata, 13 nM) turned out to be 63.67%; in experiment [6] (N. salina, 40 μM), 61.76%. Moreover, the “effect on growth and lipid levels” value in experiment [21] was “positive increases in growth and lipid levels”. In addition, the IC50 in experiment [22] is 1000 nM.
On to `CCCCc1c(-c2ccc(O)cc2)[nH]c2nccnc12` [Aloisine A, 7-n-Butyl-6-(4-hydroxyphenyl)[5H]pyrrolo[2,3-b]pyrazine], for which the IC50 is 3000 to 10000 nM in [23], 120 nM in experiment [24] and 400 nM in [25]. In experiment [11] (N. oculata), the “Nile Red Fluorescence % Increase” value worked out at 117.7%. Moreover, the entries for the “Absorbance (percent increase)” value in experiment [5] (200 nM) and in [5] (20 μM) were −5.4% and −12.6%, respectively. For the same molecule, the “Nile Red percent increase” value in experiment [5] (200 nM) is recorded as 125.9%; in [5] (20 μM) it was 84.1%.
On to “2-tert-Butyl-4-hydroxyanisole and 3-tert-butyl-4-hydroxyanisole (mixture) [BHA]”, for which, in experiment [14] (4 nM), the “increase in lipid levels” value was 63%, the Lipid productivity was determined as 8.1 ± 0.6 mgL^−1day^−1, the Lipid content is recorded as 28.8 ± 11.4 % w/w and the “Change in Lipids” value was 63%. In experiment [14] (4 nM), the “Specific Growth Rate” value amounted to 0.23 ± 0.002 day⁻¹. The IC50 in experiment [26] is 43000 nM. Further, the “% Inc” value in experiment [6] (N. salina) is 290.14%.

The values are drawn from patent US8778643B2, “Methods for increasing lipid levels and producing triacylglycerols in algae” (priority 2012, dated 2014).
